Patent US20100189701A1, “METHODS AND COMPOSITIONS TO TREAT ARRHYTHMIAS” (priority 2007, published 2010)

Assays:
MMP-7 = conditions: clinically relevant dosages; cited from earlier work
epicardial border zone = test: Canine infarct epicardial border zone, electrograms and microelectrode study; type: in vivo, dog; conditions: dog, in vivo
[1] = system: neonatal rat ventricular myocyte cultures; test: Conduction velocity in neonatal rat ventricular myocyte cultures on multi-electrode array; type: cell-based
HCN2 induced current = test: Autonomic agonists on HCN2 induced current in hMSCs; type: cell-based
[2] = system: monomorphic ventricular tachycardia; conditions: one week after gene transfer; cited from earlier work
[3] = cited from earlier work
[4] = Sodium channel steady state inactivation (literature values); conditions: depolarization to −65 mV
Description: Since slow conduction is an essential feature of reentrant cardiac arrhythmias, it seems worth considering other mammalian sodium channels that might have more favorable properties than the cardiac Na channel in circumstances that favor slow conduction. One such circumstance is membrane depolarization and so the voltage dependence of steady state inactivation is of interest. Cohen Table I provides a comparison of the midpoints for steady state inactivation and slope factor for the cardiac and skeletal muscle sodium channels and a specific mutant of the skeletal muscle channel (G1306E). […] Thus, if cardiac muscle is depolarized to −65 mV, virtually all cardiac sodium channels would be inactivated, while a similar depolarization would leave almost half of normal skeletal muscle sodium channels available. This observation thus relates to a method of the present invention that the use of alternative sodium channels with more favorable biophysical properties serve as a useful antiarrhythmic therapy.
Besides existing sodium channels, much has been learned from structure-function studies in which specific amino acids have been mutated. An extensive study of the S4 domain of the skeletal muscle sodium channel was conducted by Haywood et al. (1996), J. Gen. Physiol. 107, 559-576 in an attempt to understand the origins of enhanced excitability in inherited human myotonia. […]

hMSCs = test: Patch clamp of If in hMSCs transfected with mHCN2; type: cell-based, human
Description: FIG. 4: Example of loading hMSC with a gene of interest, studying it biophysically and determining its effect on the heart. Panels A-C study functional expression of If in hMSCs transfected via electroporation with mHCN2 gene. If was expressed in hMSCs transfected with the mHCN2 gene (B) but not in nontransfected stem cells (A). C, Fit by the Boltzmann equation to the normalized tail currents of If gives a midpoint of −91.8+/−0.9 mV and a slope of 8.8+/−0.5 mV (n=9). If was fully activated around −140 mV with an activation threshold of −60 mV. […] Voltage protocol was to hold at −30 mV and hyperpolarize for 1.5 seconds to voltages between −40 and −160 mV in 10-mV increments followed by a 1.5-second voltage step to +20 mV to record the tail currents. Panels D-E show function of hMSCs loaded with HCN2 gene 10 days after injection into canine LV anterior wall in dog in complete heart block. Panels D, placebo experiment, dog injected with saline. […] Panels E, dog injected with approximately 1.2 million hMSCs loaded with HCN2.

[5] = system: neonatal and adult rat ventricular myocytes; conditions: adenoviral expression; cited from earlier work

Q: With `COc1cc2ncnc(Nc3ccc(F)c(Cl)c3)c2cc1OCCCN1CCOCC1` [Gefitinib] as the molecule, how does the MMP-7 activity (MMP-7) read?
A: inhibits MMP-7 activity

Q: With `NC1=N[C@H](O)[C@H]2[C@H]3O[C@]4(O)O[C@@H]([C@@H](O)[C@@]2(N1)[C@@H]4O)[C@]3(O)CO` [TTX, tetrodotoxin] as the molecule, how does the “Vmax and membrane responsiveness response” value (epicardial border zone) read?
A: significant response to TTX

Q: What about the conduction velocity decrease [1] of the same molecule?
A: 20%

Q: For `CC(C)NCC(O)c1ccc(O)c(O)c1` (stereo not drawn) [isoproterenol], which “effect on expressed HCN2 current” value (HCN2 induced current) is on record?
A: has a direct effect on the expressed current

Q: Which “animals showing no inducible monomorphic VT” value [2] does the source give for Cx43: connexin here?
A: 4 of 5

Q: For p-conotoxin GIIIA [μ-CTX GIIIA], which “effect on CV” value [1] is on record?
A: CV is reduced in SkM1 cultures to the level recorded in GFP cultures

Q: With “skM1(G1306E): specific mutant of the skeletal muscle sodium channel” as the molecule, how does the inactivation midpoint ([3]; as stated in Example 16 group description) read?
A: −55 mV

Q: What about the activation midpoint ([3]; as worded) of the same molecule?
A: −57 mV

Q: And the Slope factor ([3]; steady state inactivation)?
A: −5.2 mV

Q: What about the sodium channels available [4] of the same molecule?
A: more than 70%

B1: mHCN2: pacemaker channel gene (protein, UniProt O88703 1-863, looked up)
Potassium/sodium …: MDARGGGGRPGDSPGTTPAPGPPPPPPPPAPPQPQPPPAPPPNPTTPSHPESADEPGPRARLCSRDSACTPGAAKGGANGECGRGEPQCSPEGPARGPKVSFSCRGAASGPSAAEEAGSEEAGPAGEPRGSQASFLQRQFGALLQPGVNKFSLRMFGSQKAVEREQERVKSAGAWIIHPYSDFRFYWDFTMLLFMVGNLIIIPVGITFFKDETTAPWIVFNVVSDTFFLMDLVLNFRTGIVIEDNTEIILDPEKIKKKYLRTWFVVDFVSSIPVDYIFLIVEKGIDSEVYKTARALRIVRFTKILSLLRLLRLSRLIRYIHQWEEIFHMTYDLASAVMRICNLISMMLLLCHWDGCLQFLVPMLQDFPSDCWVSINNMVNHSWSELYSFALFKAMSHMLCIGYGRQAPESMTDIWLTMLSMIVGATCYAMFIGHATALIQSLDSSRRQYQEKYKQVEQYMSFHKLPADFRQKIHDYYEHRYQGKMFDEDSILGELNGPLREEIVNFNCRKLVASMPLFANADPNFVTAMLTKLKFEVFQPGDYIIREGTIGKKMYFIQHGVVSVLTKGNKEMKLSDGSYFGEICLLTRGRRTASVRADTYCRLYSLSVDNFNEVLEEYPMMRRAFETVAIDRLDRIGKKNSILLHKVQHDLSSGVFNNQENAIIQEIVKYDREMVQQAELGQRVGLFPPPPPPQVTSAIATLQQAVAMSFCPQVARPLVGPLALGSPRLVRRAPPGPLPPAASPGPPAASPPAAPSSPRAPRTSPYGVPGSPATRVGPALPARRLSRASRPLSASQPSLPHGVPAPSPAASARPASSSTPRLGPAPTARTAAPSPDRRDSASPGAASGLDPLDSARSRLSSNL
Q: What does the source list for B1?
A: activation threshold (hMSCs): −60 mV; voltage of full activation (hMSCs): around −140 mV; midpoint of If activation (Boltzmann fit to tail currents) (hMSCs; hMSCs transfected via electroporation, n=9): −91.8+/−0.9 mV; slope of If activation (hMSCs; n=9): 8.8+/−0.5 mV; voltage dependence of activation, neonatal vs adult myocytes [5]: about 20 mV

B2: HERG-G628S: dominant negative HERG mutant (protein, UniProt Q12809 1-1159, looked up, variant G628S)
Voltage-gated inwardly …: MPVRRGHVAPQNTFLDTIIRKFEGQSRKFIIANARVENCAVIYCNDGFCELCGYSRAEVMQRPCTCDFLHGPRTQRRAAAQIAQALLGAEERKVEIAFYRKDGSCFLCLVDVVPVKNEDGAVIMFILNFEVVMEKDMVGSPAHDTNHRGPPTSWLAPGRAKTFRLKLPALLALTARESSVRSGGAGGAGAPGAVVVDVDLTPAAPSSESLALDEVTAMDNHVAGLGPAEERRALVGPGSPPRSAPGQLPSPRAHSLNPDASGSSCSLARTRSRESCASVRRASSADDIEAMRAGVLPPPPRHASTGAMHPLRSGLLNSTSDSDLVRYRTISKIPQITLNFVDLKGDPFLASPTSDREIIAPKIKERTHNVTEKVTQVLSLGADVLPEYKLQAPRIHRWTILHYSPFKAVWDWLILLLVIYTAVFTPYSAAFLLKETEEGPPATECGYACQPLAVVDLIVDIMFIVDILINFRTTYVNANEEVVSHPGRIAVHYFKGWFLIDMVAAIPFDLLIFGSGSEELIGLLKTARLLRLVRVARKLDRYSEYGAAVLFLLMCTFALIAHWLACIWYAIGNMEQPHMDSRIGWLHNLGDQIGKPYNSSGLGGPSIKDKYVTALYFTFSSLTSVGFSNVSPNTNSEKIFSICVMLIGSLMYASIFGNVSAIIQRLYSGTARYHTQMLRVREFIRFHQIPNPLRQRLEEYFQHAWSYTNGIDMNAVLKGFPECLQADICLHLNRSLLQHCKPFRGATKGCLRALAMKFKTTHAPPGDTLVHAGDLLTALYFISRGSIEILRGDVVVAILGKNDIFGEPLNLYARPGKSNGDVRALTYCDLHKIHRDDLLEVLDMYPEFSDHFWSSLEITFNLRDTNMIPGSPGSTELEGGFSRQRKRKLSFRRRTDKDTEQPGEVSALGPGRAGAGPSSRGRPGGPWGESPSSGPSSPESSEDEGPGRSSSPLRLVPFSSPRPPGEPPGGEPLMEDCEKSSDTCNPLSGAFSGVSNIFSFWGDSRGRQYQELPRCPAPTPSLLNIPLSSPGRRPRGDVESRLDALQRQLNRLETRLSADMATVLQLLQRQMTLVPPAYSAVTTPGPGPTSTSPLLPVSPLPTLTLDSLSQVSQFMACEELPPGAPELPQEGPTRRLSLPGQLGALTSQPLHRHGSDPGS
Q: Which “animals showing no inducible monomorphic VT” value [2] does the source give for B2 here?
A: 5 of 5

B3: ERG3: delayed rectifier with steady state window current (protein, UniProt Q9NS40 1-1196, looked up)
Voltage-gated inwardly …: MPVRRGHVAPQNTFLGTIIRKFEGQNKKFIIANARVQNCAIIYCNDGFCEMTGFSRPDVMQKPCTCDFLHGPETKRHDIAQIAQALLGSEERKVEVTYYHKNGSTFICNTHIIPVKNQEGVAMMFIINFEYVTDNENAATPERVNPILPIKTVNRKFFGFKFPGLRVLTYRKQSLPQEDPDVVVIDSSKHSDDSVAMKHFKSPTKESCSPSEADDTKALIQPSKCSPLVNISGPLDHSSPKRQWDRLYPDMLQSSSQLSHSRSRESLCSIRRASSVHDIEGFGVHPKNIFRDRHASEDNGRNVKGPFNHIKSSLLGSTSDSNLNKYSTINKIPQLTLNFSEVKTEKKNSSPPSSDKTIIAPKVKDRTHNVTEKVTQVLSLGADVLPEYKLQTPRINKFTILHYSPFKAVWDWLILLLVIYTAIFTPYSAAFLLNDREEQKRRECGYSCSPLNVVDLIVDIMFIIDILINFRTTYVNQNEEVVSDPAKIAIHYFKGWFLIDMVAAIPFDLLIFGSGSDETTTLIGLLKTARLLRLVRVARKLDRYSEYGAAVLMLLMCIFALIAHWLACIWYAIGNVERPYLTDKIGWLDSLGQQIGKRYNDSDSSSGPSIKDKYVTALYFTFSSLTSVGFGNVSPNTNSEKIFSICVMLIGSLMYASIFGNVSAIIQRLYSGTARYHMQMLRVKEFIRFHQIPNPLRQRLEEYFQHAWTYTNGIDMNMVLKGFPECLQADICLHLNQTLLQNCKAFRGASKGCLRALAMKFKTTHAPPGDTLVHCGDVLTALYFLSRGSIEILKDDIVVAILGKNDIFGEMVHLYAKPGKSNADVRALTYCDLHKIQREDLLEVLDMYPEFSDHFLTNLELTFNLRHESAKADLLRSQSMNDSEGDNCKLRRRKLSFESEGEKENSTNDPEDSADTIRHYQSSKRHFEEKKSRSSSFISSIDDEQKPLFSGIVDSSPGIGKASGLDFEETVPTSGRMHIDKRSHSCKDITDMRSWERENAHPQPEDSSPSALQRAAWGISETESDLTYGEVEQRLDLLQEQLNRLESQMTTDIQTILQLLQKQTTVVPPAYSMVTAGSEYQRPIIQLMRTSQPEASIKTDRSFSPSSQCPEFLDLEKSKLKSKESLSSGVHLNTASEDNLTSLLKQDSDLSLELHLRQRKTYVHPIRHPSLPDSSLSTVGIVGLHRHVSDPGLPGK
Q: Which “potential of maximal steady state conductance” value (Xenopus oocytes) does the source give for B3 here?
A: −50 mV

Q: And the “steady state window conductance vs other ERG family members” value (Xenopus oocytes)?
A: largest steady state conductance
